Results: US7405299B2, “Compounds as pharmaceutical agents” (Eli Lilly and Company, priority 2003, dated 2008)

SMILES | melting point [°C]
c1ccc(-c2nn3c(c2-c2nc4ncccc4[nH]2)CCC3)nc1 [Example 8, 2-[2-(Pyridin-2-yl)-5,6-dihydro-4H-pyrrolo[1,2-b]pyrazol-3-yl]-1H-imidazo[4,5-b]pyridine] | 170 to 172
c1ccc(-c2nn3c(c2-c2cccc4nsnc24)CCC3)nc1 [Example 4, 4-[2-(Pyridin-2-yl)-5,6-dihydro-4H-pyrrolo[1,2-b]pyrazol-3-yl]-benzo [2,1,3]thiadiazole] | 140 to 142
c1ccc(-c2nn3c(c2-c2ccc4nsnc4c2)CCC3)nc1 [Example 5, 5-[2-(Pyridin-2-yl)-5,6-dihydro-4H-pyrrolo[1,2-b]pyrazol-3-yl]benzo[2,1,3]thiadiazole] | 184 to 186

The next lines start with the values.

melting point [°C] | SMILES
182 to 184 | c1ccc(-c2nn3c(c2-c2nc4ncccc4o2)CCC3)nc1 [Example 11, 2-[2-(Pyridin-2-yl)-5,6-dihydro-4H-pyrrolo[1,2-b]pyrazol-3-yl]-oxazolo[4,5-b]pyridine]
172 to 175 | c1ccc(-c2nn3c(c2-c2nc4ccccc4[nH]2)CCC3)nc1 [Example 10, 2-[2-(Pyridin-2-yl)-5,6-dihydro-4H-pyrrolo[1,2-b]pyrazol-3-yl]-1H-benzoimidazole]
201 to 203 | c1ccc(-c2nn3c(c2-c2nc4cnccc4[nH]2)CCC3)nc1 [Example 9, 2-[2-(Pyridin-2-yl)-5,6-dihydro-4H-pyrrolo[1,2-b]pyrazol-3-yl]-1H-imidazo[4,5-c]pyridine]
180 to 184 | c1ccc(-c2nn3c(c2-c2cncc4cccnc24)CCC3)nc1 [Example 80a, 8-(2-Pyridin-2-yl-5,6-dihydro-4H-pyrrolo[1,2-b]pyrazol-3-yl)-[1,6]naphthyridine]
